Earlier results in patent US9788539B2, “Platelet protection solution having beta-galactosidase and sialidase inhibitors” (Velico Medical, Inc., priority 2011, dated 2017).

Biological target: viral, bacterial and mammalian sialidases
Settings: cited from earlier work

In the case of `CC(=O)NC1C(O)C=C(C(=O)O)OC1C(O)C(O)CO` (stereo not shown) [DANA], the Ki is given as “low μM range”.
